As a reminder, the IC50 is the midpoint of a concentration-inhibition curve.

Molecules are shown by their SMILES.

The target in the test is T1, human progesterone receptor A (Homo sapiens, UniProt P06401).
T1 construct: expressed in transfected cells; host or cells: SK-N-MC human neuroblastoma cells, stably transfected
T1 sequence (P06401 1-769 isoform P06401-2): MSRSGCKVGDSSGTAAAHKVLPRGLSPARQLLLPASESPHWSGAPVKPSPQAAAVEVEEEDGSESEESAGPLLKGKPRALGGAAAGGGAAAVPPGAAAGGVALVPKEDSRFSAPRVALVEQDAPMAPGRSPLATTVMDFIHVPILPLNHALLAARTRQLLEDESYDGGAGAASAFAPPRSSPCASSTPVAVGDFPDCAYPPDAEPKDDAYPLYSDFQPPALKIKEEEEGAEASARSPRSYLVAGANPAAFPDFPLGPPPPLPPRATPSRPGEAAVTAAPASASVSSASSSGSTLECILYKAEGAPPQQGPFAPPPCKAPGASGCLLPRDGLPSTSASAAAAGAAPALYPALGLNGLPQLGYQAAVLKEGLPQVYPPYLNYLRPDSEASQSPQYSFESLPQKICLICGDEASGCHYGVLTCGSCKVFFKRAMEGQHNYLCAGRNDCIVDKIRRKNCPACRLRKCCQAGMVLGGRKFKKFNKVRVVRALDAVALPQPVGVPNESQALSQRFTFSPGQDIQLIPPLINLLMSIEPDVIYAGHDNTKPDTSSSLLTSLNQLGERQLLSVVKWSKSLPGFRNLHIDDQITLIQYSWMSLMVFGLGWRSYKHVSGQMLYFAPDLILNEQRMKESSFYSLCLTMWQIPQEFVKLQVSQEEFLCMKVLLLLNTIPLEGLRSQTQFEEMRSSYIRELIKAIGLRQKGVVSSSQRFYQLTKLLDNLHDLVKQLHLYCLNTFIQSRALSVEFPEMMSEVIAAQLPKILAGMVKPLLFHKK
Kind of test: Progesterone-receptor-antagonistic action in stably transfected SK-N-MC cells, MTV-LUC reporter (PR-A). Format: cell-based. Particulars: antagonistic potency vs 0.1 nmol/l promegestone, 24 hours, luciferase. On the procedure: Progesterone-Receptor-Antagonistic Action in Stable Transfectants of Human Neuroblastoma Cells (SK-N-MC Cells) with the Human Progesterone A or Progesterone B Receptor and an MTV-LUC Reporter Construct
SK-N-MC cells (human neuroblastoma cells) that have been stably transfected with plasmids that express the human progesterone receptor B (pRChPR-B-neo) or the human progesterone receptor A (pRChPR-A-neo) and a reporter construct (pMMTV-LUC), were incubated for 24 hours either in the absence (negative control) or in the presence of increasing amounts of the particular test compound (0.01 nmol/l, 0.1 nmol/l, 1 nmol/l, 10 nmol/l, 100 nmol/l and 1 μmol/l), to determine the agonistic efficacy. As positive control of reporter gene induction, the cells were treated with the synthetic gestagen promegestone (0.01 nmol/l, 0.1 nmol/l, 1 nmol/l, 10 nmol/l, 100 nmol/l and 1 μmol/l). For determination of the antagonistic activity, the cells were treated with 0.1 nmol/l promegestone and additionally with increasing amounts of the particular test compound (0.01 nmol/l, 0.1 nmol/l, 1 nmol/l, 10 nmol/l, 100 nmol/l and 1 μmol/l). The activity of the reporter gene LUC (LUC=luciferase) was determined in the cell lysates and was measured as RLU (relative light units). All measured values are given as % efficacy and as EC50 or IC50 concentrations.
As to `C[C@]12C[C@H](c3ccc(C(=O)Nc4ccccn4)cc3)C3=C4CCC(=O)C=C4CC[C@H]3[C@@H]1CC[C@@]2(O)C(F)(F)C(F)(F)F` [Example 11, 4-[(11β,17β)-17-hydroxy-3-oxo-17-(pentafluoroethyl)estra-4,9-dien-11-yl]-N-(pyridin-2-yl)benzamide], the IC50 was 10 nM.
`C[C@]12C[C@H](c3ccc(C(=O)Nc4cccnc4)cc3)C3=C4CCC(=O)C=C4CC[C@H]3[C@@H]1CC[C@@]2(O)C(F)(F)C(F)(F)F` [Example 12, 4-[(11β,17β)-17-hydroxy-3-oxo-17-(pentafluoroethyl)estra-4,9-dien-11-yl]-N-(pyridin-3-yl)benzamide] had an IC50 of 1.32 nM.
For the molecule `C[C@]12C[C@H](c3ccc(C(=O)NCCCN4CCOCC4)cc3)C3=C4CCC(=O)C=C4CC[C@H]3[C@@H]1CC[C@@]2(O)C(F)(F)C(F)(F)F` [Example 13, 4-[(11β,17β)-17-hydroxy-3-oxo-17-(pentafluoroethyl)estra-4,9-dien-11-yl]-N-[3-(morpholin-4-yl)propyl]benzamide], the IC50 amounted to 24 nM.
Take `C[C@]12C[C@H](c3ccc(C(=O)Nc4ccncc4)cc3)C3=C4CCC(=O)C=C4CC[C@H]3[C@@H]1CC[C@@]2(O)C(F)(F)C(F)(F)F` [Example 14, 4-[(11β,17β)-17-hydroxy-3-oxo-17-(pentafluoroethyl)estra-4,9-dien-11-yl]-N-(pyridin-4-yl)benzamide]: the IC50 came to 0.42 nM.
In the case of `C[C@]12C[C@H](c3ccc(C(=O)N4CCCC4)cc3)C3=C4CCC(=O)C=C4CC[C@H]3[C@@H]1CC[C@@]2(O)C(F)(F)C(F)(F)F` [Example 15, (11β,17β)-17-hydroxy-17-(pentafluoroethyl)-11-[4-(pyrrolidin-1-ylcarbonyl)phenyl]estra-4,9-dien-3-one], the midpoint of inhibition, the IC50, lay at 38 nM.
As for `C[C@]12C[C@H](c3ccc(C(=O)NCCc4ccccc4)cc3)C3=C4CCC(=O)C=C4CC[C@H]3[C@@H]1CC[C@@]2(O)C(F)(F)C(F)(F)F` [Example 16, 4-[(11β,17β)-17-hydroxy-3-oxo-17-(pentafluoroethyl)estra-4,9-dien-11-yl]-N-(2-phenylethyl)benzamide], the figure is 0.67 nM; as for `CC(C)(NC(=O)c1ccc([C@H]2C[C@@]3(C)[C@@H](CC[C@@]3(O)C(F)(F)C(F)(F)F)[C@@H]3CCC4=CC(=O)CCC4=C32)cc1)c1ccccc1` [Example 17, 4-[(11β,17β)-17-hydroxy-3-oxo-17-(pentafluoroethyl)estra-4,9-dien-11-yl]-N-(2-phenylpropan-2-yl)benzamide], 0.21 nM.
With `C[C@]12C[C@H](c3ccc(C(=O)NCc4ccc(S(N)(=O)=O)cc4)cc3)C3=C4CCC(=O)C=C4CC[C@H]3[C@@H]1CC[C@@]2(O)C(F)(F)C(F)(F)F` [Example 18, 4-[(11β,17β)-17-hydroxy-3-oxo-17-(pentafluoroethyl)estra-4,9-dien-11-yl]-N-(4-sulphamoylbenzyl)benzamide], half-maximal inhibition (IC50) was put at 4.7 nM.
As for `CCNC(=O)c1ccc([C@H]2C[C@@]3(C)[C@@H](CC[C@@]3(O)C(F)(F)C(F)(F)F)[C@@H]3CCC4=CC(=O)CCC4=C32)cc1` [Example 19, N-ethyl-4-[(11β,17β)-17-hydroxy-3-oxo-17-(pentafluoroethyl)estra-4,9-dien-11-yl]benzamide], the IC50 came out at 1.4 nM.
Consider `C[C@]12C[C@H](c3ccc(C(=O)NCc4ccccn4)cc3)C3=C4CCC(=O)C=C4CC[C@H]3[C@@H]1CC[C@@]2(O)C(F)(F)C(F)(F)F` [Example 20, 4-[(11β,17β)-17-hydroxy-3-oxo-17-(pentafluoroethyl)estra-4,9-dien-11-yl]-N-(pyridin-2-ylmethyl)benzamide], for which the IC50 turned out to be 3.8 nM.
Molecule `C[C@]12C[C@H](c3ccc(C(=O)NCc4ccncc4)cc3)C3=C4CCC(=O)C=C4CC[C@H]3[C@@H]1CC[C@@]2(O)C(F)(F)C(F)(F)F` [Example 21, 4-[(11β,17β)-17-hydroxy-3-oxo-17-(pentafluoroethyl)estra-4,9-dien-11-yl]-N-(pyridin-4-ylmethyl)benzamide] registered a half-maximal inhibitory concentration (IC50) of 51 nM.
With `C[C@]12C[C@H](c3ccc(C(=O)Nc4ccccc4)cc3)C3=C4CCC(=O)C=C4CC[C@H]3[C@@H]1CC[C@@]2(O)C(F)(F)C(F)(F)F` [Example 22, 4-[(11β,17β)-17-hydroxy-3-oxo-17-(pentafluoroethyl)estra-4,9-dien-11-yl]-N-phenylbenzamide] the figure was 39 nM.
As for `COc1ccccc1NC(=O)c1ccc([C@H]2C[C@@]3(C)[C@@H](CC[C@@]3(O)C(F)(F)C(F)(F)F)[C@@H]3CCC4=CC(=O)CCC4=C32)cc1` [Example 23, 4-[(11β,17β)-17-hydroxy-3-oxo-17-(pentafluoroethyl)estra-4,9-dien-11-yl]-N-(2-methoxyphenyl)benzamide], the IC50 amounted to 86 nM.
For the molecule `COc1cccc(NC(=O)c2ccc([C@H]3C[C@@]4(C)[C@@H](CC[C@@]4(O)C(F)(F)C(F)(F)F)[C@@H]4CCC5=CC(=O)CCC5=C43)cc2)c1` [Example 24, 4-[(11β,17β)-17-hydroxy-3-oxo-17-(pentafluoroethyl)estra-4,9-dien-11-yl]-N-(3-methoxyphenyl)benzamide], the IC50 was found to be 3.7 nM.
`COc1ccc(NC(=O)c2ccc([C@H]3C[C@@]4(C)[C@@H](CC[C@@]4(O)C(F)(F)C(F)(F)F)[C@@H]4CCC5=CC(=O)CCC5=C43)cc2)cc1` [Example 25, 4-[(11β,17β)-17-hydroxy-3-oxo-17-(pentafluoroethyl)estra-4,9-dien-11-yl]-N-(4-methoxyphenyl)benzamide]: the IC50 turned out to be 11.4 nM.
As for `C[C@]12C[C@H](c3ccc(C(=O)Nc4ccc(Cl)cc4)cc3)C3=C4CCC(=O)C=C4CC[C@H]3[C@@H]1CC[C@@]2(O)C(F)(F)C(F)(F)F` [Example 26, N-(4-chlorophenyl)-4-[(11β,17β)-17-hydroxy-3-oxo-17-(pentafluoroethyl)estra-4,9-dien-11-yl]benzamide], the figure is 28 nM; as for `CCN(CC)C(=O)c1ccc([C@H]2C[C@@]3(C)[C@@H](CC[C@@]3(O)C(F)(F)C(F)(F)F)[C@@H]3CCC4=CC(=O)CCC4=C32)cc1` [Example 27, N,N-diethyl-4-[(11β,17β)-17-hydroxy-3-oxo-17-(pentafluoroethyl)estra-4,9-dien-11-yl]benzamide], 133 nM; as for `CN(C(=O)c1ccc([C@H]2C[C@@]3(C)[C@@H](CC[C@@]3(O)C(F)(F)C(F)(F)F)[C@@H]3CCC4=CC(=O)CCC4=C32)cc1)c1ccccc1` [Example 28, 4-[(11β,17β)-17-hydroxy-3-oxo-17-(pentafluoroethyl)estra-4,9-dien-11-yl]-N-methyl-N-phenylbenzamide], 63 nM.
`C[C@]12C[C@H](c3ccc(C(=O)N4CCOCC4)cc3)C3=C4CCC(=O)C=C4CC[C@H]3[C@@H]1CC[C@@]2(O)C(F)(F)C(F)(F)F` [Example 29, (11β,17β)-17-hydroxy-11-[4-(morpholin-4-ylcarbonyl)phenyl]-17-(pentafluoroethyl)estra-4,9-dien-3-one] returned a half-maximal inhibitory concentration (IC50) of 39 nM.
In turn, `C[C@]12C[C@H](c3ccc(C(=O)N4CCN(c5ccccc5)CC4)cc3)C3=C4CCC(=O)C=C4CC[C@H]3[C@@H]1CC[C@@]2(O)C(F)(F)C(F)(F)F` [Example 30, (11β,17β)-17-hydroxy-17-(pentafluoroethyl)-11-{4-[(4-phenylpiperazin-1-yl)carbonyl]phenyl}estra-4,9-dien-3-one] registered a 50% inhibitory concentration (IC50) of 7.2 nM.
Molecule `CN(Cc1ccccn1)C(=O)c1ccc([C@H]2C[C@@]3(C)[C@@H](CC[C@@]3(O)C(F)(F)C(F)(F)F)[C@@H]3CCC4=CC(=O)CCC4=C32)cc1` [Example 31, 4-[(11β,17β)-17-hydroxy-3-oxo-17-(pentafluoroethyl)estra-4,9-dien-11-yl]-N-methyl-N-(pyridin-2-ylmethyl)benzamide] gave an IC50 of 10.8 nM.
